The source of these data is patent US20190099404A1, “ANALGESIC COMPOUNDS” (ZENO ROYALTIES & MILESTONES, LLC, priority 2016, published 2019).

The subject of the assay is male ICR mice. Put plainly: Formalin Paw Test. The class given is in vivo. To be noted: 30 mg/kg, intraperitoneal, given 10 minutes before formalin; for Early Phase: early/acute phase (0-10 minutes) after 2% formalin in hind paw; for Late Phase: late/tonic phase (10-35 minutes) after 2% formalin in hind paw. Here is the method:
One test compound or the vehicle was administered to each mouse in each test group (8 mice per group). Non-fasted male ICR mice weighing 23±3 g were used. Test compounds were administered at a concentration of 30 mg/kg; morphine was administered at a concentration of 10 mg/kg; and acetaminophen was administered at a concentration of >100 mg/kg. The control group received the vehicle (5% DMSO/15% PEG400/10% HPbCD/0.9% Saline). After 10 minutes, a 2% formalin solution (0.02 mL) was injected into one hind paw (sub-plantar) of each mouse. Responses were measured every 5 minutes after the formalin injection for 35 minutes.
The results in Table A are for intraperitoneal administration. In Table A, ‘A’ designates <70 licks/sec, ‘B’ designates ≥70 licks/sec and <165 licks/sec, and ‘C’ designates ≥165 licks/sec.

As for `NCc1nc2cc(C(F)(F)F)ccc2s1` [Compound 5], the “Early Phase” value is listed as “A (‘A’ designates <70 licks/sec)” and the “Late Phase” value is listed as “A (‘A’ designates <70 licks/sec)”.

For `Nc1nc2ccc(C(F)(F)F)cc2s1` [Compound 6], the “Early Phase” value is recorded as “A (‘A’ designates <70 licks/sec)” and the “Late Phase” value was “A (‘A’ designates <70 licks/sec)”.

For the compound `Nc1ccc2[nH]cnc2c1` [Compound 1], the “Early Phase” value was “B (‘B’ designates ≥70 licks/sec and <165 licks/sec)”; the “Late Phase” value was “C (‘C’ designates ≥165 licks/sec)”.

With `CC(C)(C)c1ccc2nc(N)sc2c1` [Compound 10], the “Early Phase” value was “A (‘A’ designates <70 licks/sec)” and the “Late Phase” value is “A (‘A’ designates <70 licks/sec)”.

As to `NCc1nc2cc(F)ccc2[nH]1` [Compound 9], the “Early Phase” value was “A (‘A’ designates <70 licks/sec)” and the “Late Phase” value is on record as “A (‘A’ designates <70 licks/sec)”.

As to `NCc1cc2ccccn2n1` [Compound 3], the “Early Phase” value is recorded as “A (‘A’ designates <70 licks/sec)” and the “Late Phase” value is on record as “C (‘C’ designates ≥165 licks/sec)”.

With `Cn1ncc2cc(N)ccc21` [Compound 2], the “Early Phase” value is on record as “A (‘A’ designates <70 licks/sec)”; the “Late Phase” value was “B (‘B’ designates ≥70 licks/sec and <165 licks/sec)”.

`NCCc1nc2ccc(F)cc2[nH]1` [Compound 7]: the “Early Phase” value was “B (‘B’ designates ≥70 licks/sec and <165 licks/sec)”; the “Late Phase” value is listed as “A (‘A’ designates <70 licks/sec)”.

Turning to `NCc1ccc2cncn2c1` [Compound 11], the “Early Phase” value was “B (‘B’ designates ≥70 licks/sec and <165 licks/sec)”; the “Late Phase” value is recorded as “C (‘C’ designates ≥165 licks/sec)”.

With `NCc1cc2cc(F)ccc2[nH]1` [Compound 4], the “Early Phase” value is given as “A (‘A’ designates <70 licks/sec)” and the “Late Phase” value is “A (‘A’ designates <70 licks/sec)”.
